Reference: patent publication US6287840A (Axys Pharmaceuticals, Inc., priority 1999, dated 2001)

System: T. cruzi
Test: T. cruzi infected irradiated J774 cells
Type: cell-based
Set-up: dose or concentration left out as unconfirmed
Conditions: thereafter without inhibitor; compounds listed in decreasing order of effectiveness
Experimental: Irradiated J774 cells were infected with T. cruzi and simultaneously treated with […] of peptidyl vinyl derivatives for 5 days; thereafter without inhibitor. The following compounds were effective in decreasing order: Mu-Phe-ArgVSPh, Boc-Tyr(I2)-HphVSPh, Mu-Phe-VaIVSPh, Boc-Tic-HphVSPh, Mu-Phe-Ser(OBzl)VSPh, Mu-Leu-HphVSPh, Mu-Tyr(I2)-HphVSPh, Mu-Phe-LysVSPh, Mu-Tic-HphVSPh.

Compound: CC(C)C[C@H](NC(=O)N1CCOCC1)C(=O)N[C@H](/C=C/S(=O)(=O)c1ccccc1)CCc1ccccc1 [Mu-Leu-HphVSPh, (S)-(E)-3-(4-morpholinecarbonylleucyl)amino-5-phenyl-1-phenylsulfonyl-1-pentene]
- effectiveness against T. cruzi in J774 cells: effective
